Experimental findings from PMC5643135, “Crystallographic and thermodynamic characterization of phenylaminopyridine bisphosphonates binding to human farnesyl pyrophosphate synthase” (PLoS ONE, 2017) are described below.

In the assay the target is T1, human farnesyl pyrophosphate synthase (hFPPS) (Homo sapiens, UniProt P14324).
T1 construct: gene FDPS; purified protein, homodimer, subunit 42 kDa
T1 sequence (P14324 1-353 isoform P14324-2): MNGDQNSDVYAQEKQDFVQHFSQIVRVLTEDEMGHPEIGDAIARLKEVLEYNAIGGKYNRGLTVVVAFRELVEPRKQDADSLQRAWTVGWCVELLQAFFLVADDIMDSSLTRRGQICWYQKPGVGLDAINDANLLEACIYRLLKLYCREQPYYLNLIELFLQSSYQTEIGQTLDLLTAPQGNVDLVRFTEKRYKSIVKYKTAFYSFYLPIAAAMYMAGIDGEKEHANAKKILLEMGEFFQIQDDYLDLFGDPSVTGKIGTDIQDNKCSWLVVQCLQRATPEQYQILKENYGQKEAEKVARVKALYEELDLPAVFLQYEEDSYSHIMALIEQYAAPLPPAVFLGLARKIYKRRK
The assay can be described thus: ITC, one-site model. The format is binding. The text has this: ITC, one-site model on human farnesyl pyrophosphate synthase (hFPPS)
(ITC needs no label: the signal is the heat of the interaction.)

Each structure is given as a SMILES string.

Molecule `O=P(O)(O)C(Nc1cncc(-c2ccc(OC3CC3)cc2)c1)P(=O)(O)O` [JDS05120] displayed a dissociation constant (Kd) of 120 ± 36 nM.

A word on the Kd: it is the equilibrium constant for the complex coming apart.
